# Tests used:
# Type in all cases: in vivo, rat
# WAG/Rij rats [1] = assay: Forced swimming test (FST); settings: for immobility time: sub-chronic, vs control
# Protocol: (§1) To test the effects bCBD and sCBD on epileptic comorbidities, separate groups (n=10) of treated and vehicle WAG/Rij rats at 6 months of age were subjected to several behavioural tests (see below—cohort 2).
# (§2) All behavioural tests were performed 1-hour post-dose in the morning. All experimental groups were subjected to a single test per day. […].
# The FST, is currently the most reliable method to rapidly screen compounds for antidepressant activity in rodents; we used an FST protocol previously standardized in our laboratories for WAG/Rij rats.
# Briefly, rats were placed individually for 6 min into a glass cylinder (height 47 cm, diameter 38 cm) filled with 38 cm of water maintained between 23° C. and 25° C. The total duration of immobility (immobility time) was recorded during the last 4 min of a 6-min testing period. The criterion for immobility and passive swimming (immobility time) was floating vertically in the water while making only those movements essential to keep the head above the surface of the water, which is directly proportional to depressive-like behaviour. At the end of the FST, rats were removed and dried with a towel before being returned to their home cage. Mean swimming velocity and total distance moved were also measured and examined for every experimental group in order to check for any obvious locomotor impairment.
# WAG/Rij rats [2] = assay: Rotarod test (RT); settings: 10 and 100 mg/Kg; p=0.9455; data not shown
# Protocol: The Rotarod apparatus (Ugo Basile, Varese, Italy) consists of a base platform and a rotating rod with a diameter of 6 cm and a non-slippery surface. The integrity of motor coordination is assessed on the basis of the time the animals keep their balance on the accelerating rotating rod up to a maximum of 10 min (600 s).
# Briefly, rats were pre-trained for 2 days in order to reach a stable performance. After the training, the rotation of the rod was gradually accelerated from 5 rpm to 50 rpm. After a maximum of 3 falls from the rod, the test is suspended and the time is recorded, the result is a mean of the 3 measures.
# WAG/Rij rats [3] = assay: Three chamber test (TCT), sociability
# Protocol: as §1, §2
# Three-chambered approach (sociability) is an automated, widely used and well validated assay that compares time that the subject (rodent) spends with a novel animal versus time spent with a non-social inanimate object.
# The three-chamber apparatus is a non-transparent white plastic box with two transparent acrylic partitions with a rectangular opening. The acrylic partitions divide the box into three chambers (left, centre, and right), illuminated at 120 lux. The animal is placed in the middle chamber with the dividers closed to allow it to explore the middle chamber for ten minutes.
# After this habituation period, an unfamiliar adult animal is placed inside a small wire cage in one of the side chambers. An identical wire cage with an inanimate object is placed in the opposite chamber. The dividers are then raised, allowing the test subject to move freely throughout all three chambers of the apparatus over a 10-minute test session. […]
# WAG/Rij rats [4] = assay: Passive avoidance (PA)
# Protocol: as §1, §2
# Rats were tested in a step-through type passive avoidance apparatus (Ugo Basile, Italy, model 40,550), measuring 57×27×30 cm, consisting of a cage divided into two chambers (light and dark) by a sliding door.
# The PA test was carried out over two successive days. Briefly, on day one (pre-acquisition trial or habituation), rats were introduced individually in the light compartment and allowed to freely explore the cage for 5 min. The acquisition or conditioning trial was conducted 15 min after habituation. Rats were individually introduced in the light compartment.; following a 30 s adaptation time, the sliding door between the two compartments was opened. When rats completely entered into the dark compartment, the sliding door was automatically closed and an electrical foot-shock (0.5 mA for 3 s) was delivered via the floor grid.
# The latency to enter (s) in the dark compartment was detected and analysed. The retention or memory trial was evaluated 24 h after the acquisition trial, by recording their latency to enter (s) in the dark compartment. The latency to enter in the dark compartment was directly linked to the retention memory: the better the memory, the greater the latency.
# WAG/Rij rats [5] = assay: Elevated plus maze (EPM); settings: 10 and 100 mg/Kg; p=0.67; FIG. 3B
# Protocol: as §1, §2
# The EPM consists of 2 opposing open arms and 2 opposing closed arms of the same size (45 cm×10 cm) with 10 cm high walls connected by a central platform (10×10 cm) and elevated 80 cm above the floor. Rats are positioned in the central platform facing a closed arm and the number of entries into, time spent on each arm, and central platform are measured.
# The maze was systematically cleaned (Disposable towels and 70% ethanol solution) to remove olfactory cues, after each animal was tested. The shorter the time spent in open arms and central platform the higher the anxiety is and vice versa. Mean velocity and total distance moved were also measured and examined for every experimental group.
# WAG/Rij rats [6] = assay: Novel object recognition test (nORT)
# Protocol: as §1, §2
# The nORT was performed as previously described by Bartolini et al. with some minor modifications. Briefly, three days before nORT, rats were exposed to a habituation trial lasting 6 min.
# During this trial, each rat was allowed to freely explore an opaque open field Plexiglas box (70×70×30 cm). To investigate short-term memory, in the familiarization trial (T1) two identical objects (wood cubes) were located in two opposite corners of the box. Each rat was placed in the centre of the open field, facing away from the sample objects and left to explore freely the objects for a maximum of 5 min, before returning to its home cage. The familiarization trial ended when the rat completed 20 s of exploration for each object.
# Exploration was considered directing the nose at a distance <2 cm to the object and/or touching it with the nose and sniffing. After a retention interval of 60 min the test phase (T2) was conducted.
# After this session, the rat returned to home cage. The time spent exploring the familiar (F) and the novel object (N) was recorded separately and a discrimination index (DI) was calculated (DI=N−F/N+F). To avoid olfactory cues both the objects and the box were cleaned with 70% ethanol solution after each session.
# Furthermore, to avoid place preference, the role (familiar or novel object) and the position of the two objects during T2 were randomly changed. Total distance moved (cm) was also evaluated and analysed for every experimental group in order to check for locomotor deficits.
# WAG/Rij rats [7] = assay: EEG recording of spike wave discharges (SWDs), established absence seizures; settings: 10 and 100 mg/Kg i.p. twice daily, 14 days; vs control (vehicle); ANOVA across groups; FIG. 2A
# Protocol: The effects of botanically derived purified CBD (>98%) (bCBD) and synthetic CBD (sCBD) at 10 and 100 mg/Kg, i.p. twice daily, for both drugs, was assessed in this animal model, by EEG-recordings and behavioural tests.
# WAG/Rij rats were treated with bCBD or sCBD (10 and 100 mg/Kg, i.p. twice daily, for both drugs) over a chronic test period of at least 14 days.
# Drug treatment was started at about 6 months of age (n=10 for every dose and drug group) and continued for 14 consecutive days, when experimental tests were performed (treatment was also continued during the experimental procedure phase. Age-matched control (vehicle) WAG/Rij rats (n =10) were kept under the same housing conditions over the same period of time with vehicle (1:1:18, Ethanol:kolliphor HS15:saline; i.p.).
# WAG/Rij rats (n=10) underwent 2 EEG-recording periods in 2 consecutive days (one session per day). Every recording session lasted 3 hours and was performed 1 hour after drug administration. […]
# All animals were allowed at least 1 week of recovery and handled twice a day. […] The blinded quantification of absence seizures was based on the number and the duration of EEG Spike Wave Discharges (SWDs).
# All statistical procedures were performed using GraphPad Prism 6.0 (GraphPad Software, Inc., La Jolla, CA, USA). EEG recordings were subdivided into 30-min epochs, and the duration and number of SWDs were evaluated separately.
smiles,measurement,setting,value
"C=C(C)[C@@H]1CCC(C)=C[C@H]1c1c(O)cc(CCCCC)cc1O [sCBD, cannabidiol]","immobility time, overall","WAG/Rij rats [1]; 10 and 100 mg/Kg, vs control (vehicle), ANOVA across groups, FIG. 3A","significantly (F4,45=12.29; p<0.0001; n=10 per group) reduce"
same,immobility time,WAG/Rij rats [1]; higher dose (100 mg/Kg i.p. twice daily),significant reduction
same,immobility time,WAG/Rij rats [1]; lower dose (10 mg/Kg i.p. twice daily),not effective
same,rotarod test results (motor coordination),WAG/Rij rats [2],did not influence
same,time spent in the novel rat chamber vs the novel object chamber,"WAG/Rij rats [3]; 100 mg/Kg, sub-chronic",significantly more time in the novel rat chamber
same,time spent sniffing the novel rats,"WAG/Rij rats [3]; higher dose (100 mg/Kg), vs control rats, p<0.0001",significantly increased
same,latency to enter in the dark compartment,"WAG/Rij rats [4]; conditioning trial, 10 and 100 mg/Kg, data not shown",no significant effect
same,latency to enter in the dark compartment,"WAG/Rij rats [4]; retention session, higher dose (100 mg/Kg), vs control",did not significantly modify
same,latency to enter in the dark compartment,"WAG/Rij rats [4]; retention session, lower dose (10 mg/Kg), vs control",did not significantly modify
same,anxiety-like behaviour,WAG/Rij rats [5],not affected
same,discrimination index (DI),"WAG/Rij rats [6]; 100 mg/Kg, vs vehicle",significantly increased
same,"discrimination index (DI), overall","WAG/Rij rats [6]; 10 and 100 mg/Kg, ANOVA across groups, FIG. 3D","significantly (F4,45=6.009; p=0.0006; n=10 per group) affect"
same,discrimination index (DI),"WAG/Rij rats [6]; lower dose (10 mg/Kg), vs control",did not significantly
same,mean number of spike wave discharges (nSWDs),WAG/Rij rats [7],"did not significantly (F4,45=2.572; p=0.0504; n=10 per group) alter"
